Each block holds one compound with its values, some of them ahead of it.
Experiment: solvent given as SMILES

emission maximum (in ClCCl): 533 nm
Compound: O=c1oc2ccccc2c2c1c(=O)oc1c3ccccc3cc(O)c12

emission maximum (in ClCCl): 444 nm
Compound: CCCCn1c(-c2ccc(-c3nnc(-c4cccs4)o3)cc2)nc(-c2ccccc2)c1-c1ccccc1

emission maximum (in CC#N): 594 nm
emission maximum (in CC(C)O): 616 nm
emission maximum (in CCO): 616 nm
emission maximum (in CCOC(C)=O): 547.6 nm
emission maximum (in CO): 616 nm
Compound: Nc1ccc2c(c1)C(=O)c1ccc(N)cc1C2=O

emission maximum (in ClCCl): 363 nm
Compound: COc1ccc2c(c1)cc(C)c1c3ccccc3[nH]c21

emission maximum (in O): 439 nm
Compound: O=C(O)CCCCCn1c2ccc(Br)cc2c(=O)c2cc(Br)ccc21

emission maximum (in CC#N): 610 nm
Compound: Cc1ccc(S(=O)(=O)Nc2c(/C=C/c3ccccc3)sc(-c3ccc(N(C)C)s3)c2-c2cccnc2)cc1

emission maximum (in ClCCl): 430 nm
Compound: CCOC(=O)c1ccc(C2CC(c3cccc4ccccc34)=NN2c2ccc(C#N)cc2)cc1 (stereo not drawn)

emission maximum (in ClCCl): 648 nm
emission maximum (in O): 658 nm
Compound: CC[N+](CC)=c1ccc2cc3c(=O)oc4cc5c(cc4c3oc-2c1)CCCN5C

emission maximum (in ClCCl): 421 nm
Compound: CCOC(=O)c1c(-c2cc3ccc(OC)cc3oc2=O)nn(-c2ccccc2)c1C(=O)OCC

emission maximum (in ClC(Cl)Cl): 457 nm
Compound: COc1ccc(C2=Cc3ccc4ccccc4[n+]3[B-](F)(F)O2)cc1

emission maximum (in ClCCl): 735 nm
Compound: CCN(CC)c1ccc2c(-c3ccccc3C(=O)O)c3c([o+]c2c1)/C(=C/c1nc(C)n2ccccc12)CCC3

emission maximum (in CC#N): 435 nm
emission maximum (in ClCCl): 417 nm
Compound: Cc1ccc(-c2cc(C)[o+]c(C)c2)cc1

emission maximum (in CC#N): 466 nm
Compound: Oc1ccc2ccccc2c1/C=N/CC/N=C/c1c(O)ccc2ccccc12

emission maximum (in CC#N): 448 nm
Compound: C=Cc1cc2cc3c(cc2oc1=O)OCO3

emission maximum (in CS(C)=O): 639 nm
Compound: COc1ccc(-c2c3nc(cc4ccc([nH]4)c(-c4ccc(OC)c(OCCCC(=O)O)c4)c4nc(cc5ccc2[nH]5)C=C4)C=C3)cc1OCCCC(=O)O

emission maximum (in CC#N): 505 nm
Compound: COc1ccccc1-c1nc2c([nH]1)C1=CC(=O)S[C@]1(C)[C@@]1(C)SC(=O)C=C21

emission maximum (in C1COCCO1): 447 nm
Compound: COc1ccc(C2=N/C(=C\c3ccccc3)C(=O)O2)cc1OC

emission maximum (in CC#N): 558 nm
Compound: C[n+]1ccn(CCCCc2ccc3c(c2)c2ccccc2n3-c2cc(C#N)c(C#N)cc2F)c1

emission maximum (in ClCCl): 366 nm
Compound: c1ccc2c(c1)ccc1c3ccccc3ccc21

emission maximum (in CC#N): 585 nm
emission maximum (in CCCCCC): 588 nm
emission maximum (in CCOC(C)=O): 589 nm
emission maximum (in CO): 583 nm
emission maximum (in ClCCl): 594 nm
Compound: CCCSc1ccc2n1[B-](F)(F)[N+]1=CC=CC1=C2c1ccccc1

emission maximum (in ClCCl): 564 nm
Compound: Cc1ccccc1N1c2sc3ccccc3c2Sc2sc3ccccc3c21

emission maximum (in CO): 580 nm
Compound: COC(=O)COc1ccc(/C=C/C2=[N+]3C(=C(c4ccc(N(C)C)cc4)c4c(C)cc(C)n4[B-]3(F)F)C(C)=C2)cc1

The remaining lines, values behind:

Compound: CCn1c2ccccc2c2cc(/C=C/c3cccc(/C=C/c4ccc5c(c4)c4ccccc4n5CC)[n+]3CCCS(=O)(=O)[O-])ccc21
emission maximum (in C1CCOC1): 581 nm
emission maximum (in CC#N): 579 nm
emission maximum (in CC(C)=O): 578 nm
emission maximum (in Cc1ccccc1): 598 nm

Compound: Cc1cccc(C)c1-c1cc2c(C)c3c4cc5nc6ccc7c8c(C)c9cc(-c%10c(C)cccc%10C)c(-c%10c(C)cccc%10C)cc9c(C)c8c7c6nc5cc4c3c(C)c2cc1-c1c(C)cccc1C
emission maximum (in ClC(Cl)Cl): 576 nm

Compound: Cc1ccc(/C2=c3\cc/c(o3)=C(\c3ccc(C)cc3)c3ccc([nH]3)-c3ccc4n3[B-](F)(F)[N+]3=C(C=CC3=C4c3ccco3)c3ccc2[nH]3)cc1
emission maximum (in ClC(Cl)Cl): 731 nm

Compound: c1csc(-c2cnc(-c3cccs3)c3nonc23)c1
emission maximum (in C1CCCCC1): 567 nm
emission maximum (in CC(C)=O): 612 nm
emission maximum (in CCCCCC): 564 nm
emission maximum (in CCCO): 611 nm
emission maximum (in CCO): 614 nm
emission maximum (in CCOCC): 587 nm
emission maximum (in CO): 616 nm
emission maximum (in Cc1ccccc1): 600 nm
emission maximum (in ClC(Cl)(Cl)Cl): 580 nm
emission maximum (in ClC(Cl)Cl): 611 nm
emission maximum (in O=[N+]([O-])c1ccccc1): 614 nm
emission maximum (in OCC(O)CO): 633 nm
emission maximum (in OCc1ccccc1): 628 nm
emission maximum (in c1ccc2ncccc2c1): 625 nm
emission maximum (in c1ccccc1): 601 nm
emission maximum (in c1ccncc1): 617 nm

Compound: CCCCC(CC)COc1cc(OCC(CC)CCCC)c2c#cc3ccc4sc5ccc(c#cc6cc(c#cc7ccc8sc9ccc(c#cc1c2)cc9c8c7)c(C(CCCC)OCCC)cc6C(CCCC)OCCC)cc5c4c3 (stereo not drawn)
emission maximum (in ClCCl): 377 nm

Compound: COc1ccc(N(c2ccc(OC)cc2)c2ccc(-c3ccc4c(c3)C(=O)c3ccccc3C4=O)cc2)cc1
emission maximum (in CCCCCC): 571 nm
emission maximum (in CCOCC): 720 nm
emission maximum (in Cc1ccccc1): 679 nm
emission maximum (in ClC(Cl)(Cl)Cl): 646 nm

Compound: CCCCCCCCCCCCc1sc(CCCCCCCCCCCC)c2c3ccsc3c3sccc3c12
emission maximum (in ClC(Cl)Cl): 425 nm

Compound: CCN(CC)c1ccc2cc(/C=C/C(O)=C3\CC/C(=C\c4cc5ccc(N(CC)CC)cc5oc4=O)C3=O)c(=O)oc2c1
emission maximum (in C1COCCO1): 581 nm
emission maximum (in CC#N): 637 nm
emission maximum (in CC(C)=O): 613 nm
emission maximum (in CCOC(C)=O): 589 nm
emission maximum (in CN(C)C=O): 638 nm
emission maximum (in CS(C)=O): 639 nm
emission maximum (in Cc1ccccc1): 570 nm
emission maximum (in ClC(Cl)Cl): 605 nm

Compound: O=C1c2ccc3c4ccc5c6c(ccc(c7ccc(c2c37)C(=O)N1c1ccncc1)c64)C(=O)N(c1ccncc1)C5=O
emission maximum (in C1CCOC1): 570 nm
emission maximum (in C1COCCO1): 572 nm
emission maximum (in CC(C)=O): 570 nm
emission maximum (in CC(C)O): 572 nm
emission maximum (in CCCCO): 570 nm
emission maximum (in CCO): 569 nm
emission maximum (in CCOC(C)=O): 567 nm
emission maximum (in CN(C)C=O): 574 nm
emission maximum (in CO): 569 nm
emission maximum (in CS(C)=O): 580 nm
emission maximum (in ClC(Cl)(Cl)Cl): 573 nm
emission maximum (in ClC(Cl)Cl): 576 nm

Compound: CCCCOc1ccc(-c2oc3c(-c4ccc(OCCCC)cc4)c4n(c3c2-c2ccc(OCCCC)cc2)[B-](F)(F)[N+]2=Cc3c(-c5ccc(OCCCC)cc5)c5oc(-c6ccc(OCCCC)cc6)c(-c6ccc(OCCCC)cc6)c5n3[B-](F)(F)[N+]2=C4)cc1
emission maximum (in C1CCOC1): 663 nm
emission maximum (in CN(C)C=O): 672 nm
emission maximum (in CS(C)=O): 676 nm
emission maximum (in Cc1ccccc1): 668 nm
emission maximum (in ClC(Cl)Cl): 666 nm
emission maximum (in ClCCl): 667 nm

Compound: O=c1c2cc(F)c(N3CCCCC3)cc2sc2cc(N3CCCCC3)c(F)cc12
emission maximum (in CCO): 487 nm

Compound: CC(C)(C)C1CCC(=CS/C=C/c2ccc(-c3ccc(/C=C/SC=C4CCC(C(C)(C)C)CC4)cc3)cc2)CC1 (stereo not drawn)
emission maximum (in ClCCl): 432 nm

Compound: CC(C)[Si](C#Cc1cc2c3c(c1)c(=C1c4ccccc4Sc4ccccc41)c1cc(C#C[Si](C(C)C)(C(C)C)C(C)C)cc4c1N3c1c(cc(C#C[Si](C(C)C)(C(C)C)C(C)C)cc1c4=C1c3ccccc3Sc3ccccc31)c2=C1c2ccccc2Sc2ccccc21)(C(C)C)C(C)C
emission maximum (in ClCCl): 511 nm

Compound: F[B-]1(F)Oc2ccccc2-c2cc(-n3c4ccc(-c5ccccc5)cc4c4cc(-c5ccccc5)ccc43)cc[n+]21
emission maximum (in Cc1ccccc1): 471 nm
emission maximum (in O=P(c1ccccc1)(c1ccccc1)c1ccccc1Oc1ccccc1P(=O)(c1ccccc1)c1ccccc1): 496 nm

Compound: CCCCCCCCCCOc1cc(OCCCCCCCCCC)cc(C2=C3C(/C=C/c4ccc(OC)cc4)=C(C#Cc4ccc(C(C)(C)C)cc4)C(/C=C/c4ccc(OC)cc4)=[N+]3[B-](F)(F)n3c(/C=C/c4ccc(OC)cc4)c(C#Cc4ccc(C(C)(C)C)cc4)c(/C=C/c4ccc(OC)cc4)c32)c1
emission maximum (in ClC(Cl)Cl): 756 nm

Compound: CCC(C)(C)c1ccc(-c2ccc(-c3ccc(C(C)(C)CC)cc3)cc2)cc1
emission maximum (in C1COCCO1): 354 nm

Compound: COC(=O)C1CCN(c2ccc3c(N4CCCCC4)c4ccc(=[N+]5CCC(C(=O)OC)CC5)cc-4oc3c2)CC1 (stereo not drawn)
emission maximum (in ClCCl): 552 nm

Compound: CCCCCCCCCCCCOc1cc2c3c(ccc4c5c(NC6CCCCC6)cc6c7c(ccc(c1c34)c75)C(=O)N(C1CCCCC1)C6=O)C(=O)N(C1CCCCC1)C2=O
emission maximum (in ClC(Cl)Cl): 722 nm

Compound: N#Cc1cc(C#N)c(-c2ccc(N(c3ccccc3)c3ccccc3)cc2)cc1-c1ccc(N(c2ccccc2)c2ccccc2)cc1
emission maximum (in Cc1ccccc1): 477 nm

Compound: N#Cc1c[nH]c2ccccc12
emission maximum (in C1CCOC1): 314 nm
emission maximum (in C1COCCO1): 305 nm
emission maximum (in CC#N): 313 nm
emission maximum (in CC(C)O): 315 nm
emission maximum (in CCO): 314 nm
emission maximum (in CO): 314 nm
emission maximum (in CS(C)=O): 316 nm
emission maximum (in O): 320 nm
emission maximum (in OCC(F)(F)F): 314 nm

Compound: CCC1=C(C)C(=O)n2c1cc1c(C)c(CC(=O)OC)c(C)n1c2=O
emission maximum (in CO): 525 nm
emission maximum (in CS(C)=O): 500 nm
emission maximum (in ClC(Cl)Cl): 490 nm
emission maximum (in c1ccccc1): 465 nm

Compound: CCCCCCN(CCCCCC)c1ccc(C#Cc2ccc(C#N)cc2)cc1
emission maximum (in CC#N): 530 nm
emission maximum (in CO): 514 nm
emission maximum (in ClCCl): 484 nm

Compound: Cc1nc2c(ccc3c2sc(/C=C/C=C/c2ccc(N(C)C)cc2)[n+]3C)s1
emission maximum (in CO): 700 nm
emission maximum (in ClC(Cl)Cl): 696 nm

Compound: Cc1ccc(N2C(c3ccccc3[N-]S(=O)(=O)c3ccc(C)cc3)=[NH+]C(c3ccccc3)C2c2ccccc2)cc1 (stereo not drawn)
emission maximum (in Cc1ccccc1): 499 nm

Compound: COC(=O)c1ccc(NC(=O)c2ccc(N(C)C)cc2)cc1
emission maximum (in C1CCCCC1): 434 nm
emission maximum (in C1CCOC1): 470 nm
emission maximum (in CC#N): 516 nm
emission maximum (in CCOCC): 456 nm

Compound: c1ccc(-c2nc(-c3ccccc3)nc(-n3c4ccccc4c4cc(-n5c6ccccc6c6ccccc65)cc(-n5c6ccccc6c6ccccc65)c43)n2)cc1
emission maximum (in C1CCOC1): 482.53 nm
emission maximum (in Cc1ccccc1): 465.06 nm

Compound: CC1(C)[C@@H]2CC[C@]1(C)c1nc3cc(-c4cccs4)ccc3nc12
emission maximum (in CC#N): 418 nm
emission maximum (in CCCCCC): 402 nm
emission maximum (in CCCCO): 442 nm
emission maximum (in CCO): 446 nm
emission maximum (in CCOC(C)=O): 406 nm
emission maximum (in CO): 451 nm
emission maximum (in Cc1ccccc1): 402 nm
emission maximum (in ClC(Cl)Cl): 415 nm
emission maximum (in ClCCl): 413 nm

Compound: CC1(C)C2=[N+](CCCCCC(=O)NCCNC(=O)CCCCCN3/C(=C/C=C/C=C/C=C/2)C(C)(C)c2cc(S(=O)(=O)[O-])ccc23)c2ccc(S(=O)(=O)[O-])cc21
emission maximum (in CO): 778 nm
emission maximum (in O): 770 nm

Compound: Cc1cc(-c2nc(-c3ccccc3)nc(-c3ccccc3)n2)ccc1N1c2ccccc2CCc2ccccc21
emission maximum (in Cc1ccccc1): 481.75 nm
